Like-named read-outs stand apart in the source and are kept apart here.
Assays:
786-0 cells = assay: VEGF ELISA Assay; format: cell-based; conditions: Homo sapiens, 786-0, read-out: VEGF ELISA EC50
Method: Each concentration had duplicated wells. About 20 hours later, medium was removed by suction and each well was supplied with 180 μL of growth medium. About 20 μl freshly-made 10× compound stocks were added to each well. […] The EC50 was calculated by GraphPad Prism using the dose-response-inhibition (four parameter) equation. The cell seeded plate was then subjected to CellTiter-Glo luminescence cell viability assay (Promega) by adding 50 μL of Celltiter Glo reagent into each well and shaking the plate for 8 minutes at 550 rpm (Thermomixer R, Eppendorf) then read luminescence signal in plate reader (3 second delay, 0.5 second/well integration time, Synergy 2 multi Detection Microplate reader) immediately.

[1] = target: T1, HIF-2α HIS TAG-PASB Domain (Homo sapiens, UniProt Q99814); assay: HIF-2α Scintillation Proximity Assay (SPA); format: binding; conditions: 100 nM HIF-2α HIS TAG-PASB Domain
T1 construct: 100 nM HIF-2α HIS TAG-PASB Domain
Summary of the method: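 IC50 values rest on percent inhibition, where the sample signal is scaled between high and low controls. Wells contain about 100 μL: compound dispensed as 2 μL of DMSO solution, 88 μL protein-probe mix and 10 μL of beads.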

786-O-Hif-Luc cells = assay: Luciferase Assay; format: cell-based; conditions: 786-O-Hif-Luc cells, about 24 hours, read-out: Luciferase EC50
Method: A pool of infected cells were then selected against 2 μg/mL of puromycin (P8833, Sigma) for 10 days followed by limited dilution to select single clones.
Each concentration was tested in triplicate. After about 24 hours, luciferase activity was determined using ONE-Glo Luciferase Assay Reagent (E6110, Promega) following the manufacturer's recommended procedure. EC50 were calculated by using Dotmatics software.

[2] = 150 nM Compound 211 probe, read-out: SPA IC50

T1 sequence (Q99814 240-350 limits assumed): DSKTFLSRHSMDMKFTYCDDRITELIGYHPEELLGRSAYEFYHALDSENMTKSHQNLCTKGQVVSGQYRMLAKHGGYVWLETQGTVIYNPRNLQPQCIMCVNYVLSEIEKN

| SMILES | IC50 [1, 2] [nM] | EC50 (786-O-Hif-Luc cells; 24 h) [nM] | EC50 (786-0 cells) [nM] | IC50 ([1]; SPA IC50, 150 nM Compound 211 probe) [nM] | EC50 (786-O-Hif-Luc cells) [nM] |
| --- | --- | --- | --- | --- | --- |
| O=S(=O)(c1ccc(Oc2cc(F)cc(Cl)c2)c2c1[C@H](O)CC2)C(F)F [Compound 2, (R)-4-(3-chloro-5-fluorophenoxy)-7-((difluoromethyl)sulfonyl)-2,3-dihydro-1H-inden-1-ol] | – | – | 245 | – | – |
| N#Cc1ccc(Oc2cc(F)cc(F)c2)c2c1[C@H](O)C(F)(F)C2 [Compound 4, (S)-7-(3,5-Difluorophenoxy)-2,2-difluoro-3-hydroxy-2,3-dihydro-1H-indene-4-carbonitrile] | – | – | 217 | – | – |
| N#CN=S1(=O)c2ccc(Oc3cc(F)cc(F)c3)c(C(F)F)c2C(O)C1(F)F (centres unmarked) [Compound 161, N-(4-(Difluoromethyl)-5-(3,5-difluorophenoxy)-2,2-difluoro-3-hydroxy-1-oxido-2,3-dihydro-1λ^4-benzo[b]thiophen-1-ylidene)cyanamide] | 20 | 1500 | – | – | – |
| O=S1(=O)c2ccc(OC3CCOCC3)c(C(F)F)c2C(O)C1(F)F (centres unmarked) [Compound 164, 4-(Difluoromethyl)-2,2-difluoro-3-hydroxy-5-((tetrahydro-2H-pyran-4-yl)oxy)-2,3-dihydrobenzo[b]thiophene 1,1-dioxide] | 1900 | 1540 | – | – | – |
| N[C@@H]1c2c(ccc(Oc3cc(F)cc(F)c3)c2C(F)F)S(=O)(=O)C1(F)F [Compound 165, (R)-3-Amino-4-(difluoromethyl)-5-(3,5-difluorophenoxy)-2,2-difluoro-2,3-dihydrobenzo[b]thiophene 1,1-dioxide] | 33 | 57 | – | – | – |
| O=S1(=O)c2ccc(Oc3cc(F)cc(Cl)c3)c(Br)c2[C@H](O)C1(F)F [Compound 169, (3S)-4-Bromo-5-(3-chloro-5-fluoro-phenoxy)-2,2-difluoro-1,1-dioxo-3H-benzothiophen-3-ol] | – | – | – | 60 | 172 |
| C#Cc1c(Oc2cc(F)cc(C#N)c2)ccc2c1C(O)C(F)(F)S2(=O)=O (centres unmarked) [Compound 173, 3-((4-Ethynyl-2,2-difluoro-3-hydroxy-1,1-dioxido-2,3-dihydrobenzo[b]thiophen-5-yl)oxy)-5-fluorobenzonitrile] | 59 | 190 | – | – | – |
| N#CN=S1(=O)c2ccc(Oc3cc(F)cc(F)c3)c(Cl)c2[C@@H](O)C1(F)F (stereo partly drawn) [Compound 176, N-((3R)-4-Chloro-5-(3,5-difluorophenoxy)-2,2-difluoro-3-hydroxy-1-oxido-2,3-dihydro-1λ^4-benzo[b]thiophen-1-ylidene)cyanamide] | 174 | 2160 | – | – | – |
| N#Cc1c(Oc2cccc(F)c2)ccc2c1[C@@H](O)CS2(=O)=O [Compound 186, (R)-5-(3-fluorophenoxy)-3-hydroxy-2,3-dihydrobenzo[b]thiophene-4-carbonitrile 1,1-dioxide] | 746 | 492 | – | – | – |
| O=S1(=O)c2ccc(Oc3cncc(F)c3)c(Br)c2[C@@H](O)C1(F)F [Compound 187, (R)-4-bromo-2,2-difluoro-5-((5-fluoropyridin-3-yl)oxy)-3-hydroxy-2,3-dihydrobenzo[b]thiophene 1,1-dioxide] | 305 | 126 | – | – | – |
| COc1cc(F)cc(Oc2ccc3c(c2C#N)[C@@H](O)C(F)(F)S3(=O)=O)c1 [Compound 191, (R)-2,2-difluoro-5-(3-fluoro-5-methoxyphenoxy)-3-hydroxy-2,3-dihydrobenzo[b]thiophene-4-carbonitrile 1,1-dioxide] | 66 | 15000 | – | – | – |
| O=S1(=O)c2ccc(Oc3cncc(Cl)c3)c(Cl)c2[C@@H](O)C1(F)F [Compound 196, (R)-4-Chloro-5-((5-chloropyridin-3-yl)oxy)-2,2-difluoro-3-hydroxy-2,3-dihydrobenzo[b]thiophene 1,1-dioxide] | 384 | 425 | – | – | – |
| COc1c(Oc2cc(F)cc(C#N)c2)ccc2c1C(O)C(F)(F)S2(=O)=O (centres unmarked) [Compound 197, 3-((2,2-Difluoro-3-hydroxy-4-methoxy-1,1-dioxido-2,3-dihydrobenzo[b]thiophen-5-yl)oxy)-5-fluorobenzonitrile] | 940 | 1100 | – | – | – |
| N#Cc1cc(F)cc(Oc2ccc3c(c2F)C(O)C(F)(F)S3(=O)=O)c1 (centres unmarked) [Compound 198, 3-Fluoro-5-((2,2,4-trifluoro-3-hydroxy-1,1-dioxido-2,3-dihydrobenzo[b]thiophen-5-yl)oxy)benzonitrile] | 975 | 882 | – | – | – |
| N#Cc1cc(Oc2ccc3c(c2C(F)F)[C@@H](O)C(F)(F)S3(=O)=O)ccc1F [Compound 201, (R)-5-((4-(Difluoromethyl)-2,2-difluoro-3-hydroxy-1,1-dioxido-2,3-dihydrobenzo[b]thiophen-5-yl)oxy)-2-fluorobenzonitrile] | 72 | 308 | – | – | – |
| O=S1(=O)c2ccc(OCC3CC3)c(C(F)F)c2[C@@H](O)C1(F)F [Compound 203, (R)-5-(Cyclopropylmethoxy)-4-(difluoromethyl)-2,2-difluoro-3-hydroxy-2,3-dihydrobenzo[b]thiophene 1,1-dioxide] | 1890 | 1160 | – | – | – |
| N#Cc1c(Oc2cc(F)cc(F)c2)ccc2c1C(O)C(F)(F)S2(=O)=O (centres unmarked) [Compound 207, 5-(3,5-Difluorophenoxy)-2,2-difluoro-3-hydroxy-2,3-dihydrobenzo[b]thiophene-4-carbonitrile 1,1-dioxide] | 46 | 427 | – | – | – |

Further compounds by falling IC50 [1, 2], results first:

| IC50 [1, 2] [nM] | EC50 (786-O-Hif-Luc cells; 24 h) [nM] | SMILES | EC50 (786-0 cells) [nM] | IC50 ([1]; SPA IC50, 150 nM Compound 211 probe) [nM] | EC50 (786-O-Hif-Luc cells) [nM] |
| --- | --- | --- | --- | --- | --- |
| 12900 | 400 | N#Cc1cc(F)cc(Oc2ccc3c(c2C#N)[C@@H](O)CS3(=O)=O)c1 [Compound 180, (R)-5-(3-Cyano-5-fluorophenoxy)-3-hydroxy-2,3-dihydrobenzo[b]thiophene-4-carbonitrile 1,1-dioxide] | – | – | – |
| 2900 | 1420 | Cc1cncc(Oc2ccc3c(c2Br)[C@@H](O)C(F)(F)S3(=O)=O)c1 [Compound 192, (R)-4-bromo-2,2-difluoro-3-hydroxy-5-((5-methylpyridin-3-yl)oxy)-2,3-dihydrobenzo[b]thiophene 1,1-dioxide] | – | – | – |
| 1760 | 6900 | O=S1(=O)c2ccc(Oc3cccc4cn[nH]c34)c(C(F)F)c2C(O)C1(F)F (centres unmarked) [Compound 205, 5-((1H-Indazol-7-yl)oxy)-4-(difluoromethyl)-2,2-difluoro-3-hydroxy-2,3-dihydrobenzo[b]thiophene 1,1-dioxide] | – | – | – |
| 565 | 510 | O=S1(=O)c2ccc(OCc3ccccc3)c(C(F)F)c2C(O)C1(F)F (centres unmarked) [Compound 175, 5-Benzyloxy-4-(difluoromethyl)-2,2-difluoro-1,1-dioxo-3H-benzothiophen-3-ol] | – | – | – |
| 200 | 771 | CC1(O)c2c(ccc(Oc3cc(F)cc(C#N)c3)c2C(F)F)S(=O)(=O)C1(F)F (centres unmarked) [Compound 206, 3-((4-(Difluoromethyl)-2,2-difluoro-3-hydroxy-3-methyl-1,1-dioxido-2,3-dihydrobenzo[b]thiophen-5-yl)oxy)-5-fluorobenzonitrile] | – | – | – |
| 120 | 366 | N#Cc1c(Oc2cc(F)cc(F)c2)ccc2c1[C@@H](O)CS2(=O)=O [Compound 178, (R)-5-(3,5-difluorophenoxy)-3-hydroxy-2,3-dihydrobenzo[b]thiophene-4-carbonitrile 1,1-dioxide] | – | – | – |
| 83 | 296 | CC1(O)c2c(ccc(Oc3cc(F)cc(F)c3)c2Br)S(=O)(=O)C1(F)F (centres unmarked) [Compound 208, 4-Bromo-5-(3,5-difluorophenoxy)-2,2-difluoro-3-hydroxy-3-methyl-2,3-dihydrobenzo[b]thiophene 1,1-dioxide] | – | – | – |
| 57 | 413 | COc1cc(F)cc(Oc2ccc3c(c2Br)[C@@H](O)C(F)(F)S3(=O)=O)c1 [Compound 190, (R)-4-Bromo-2,2-difluoro-5-(3-fluoro-5-methoxyphenoxy)-3-hydroxy-2,3-dihydrobenzo[b]thiophene 1,1-dioxide] | – | – | – |
| 34 | 33 | N#Cc1cccc(Oc2ccc3c(c2C(F)F)[C@@H](O)C(F)(F)S3(=O)=O)c1 [Compound 199, (R)-3-((4-(difluoromethyl)-2,2-difluoro-3-hydroxy-1,1-dioxido-2,3-dihydrobenzo[b]thiophen-5-yl)oxy)benzonitrile] | – | – | – |
| 24 | 79 | O=S1(=O)c2ccc(Oc3ccc(F)c(F)c3)c(C(F)F)c2[C@@H](O)C1(F)F [Compound 200, (R)-4-(Difluoromethyl)-5-(3,4-difluorophenoxy)-2,2-difluoro-3-hydroxy-2,3-dihydrobenzo[b]thiophene 1,1-dioxide] | – | – | – |
| 17 | 32 | N#Cc1cccc(Oc2ccc3c(c2Br)[C@@H](O)C(F)(F)S3(=O)=O)c1 [Compound 194, (R)-3-((4-bromo-2,2-difluoro-3-hydroxy-1,1-dioxido-2,3-dihydrobenzo[b]thiophen-5-yl)oxy)benzonitrile] | – | – | – |
| 11 | 455 | O=S1(=O)c2ccc(Oc3cccc4sccc34)c(C(F)F)c2C(O)C1(F)F (centres unmarked) [Compound 204, 5-(Benzo[b]thiophen-4-yloxy)-4-(difluoromethyl)-2,2-difluoro-3-hydroxy-2,3-dihydrobenzo[b]thiophene 1,1-dioxide] | – | – | – |

Source: patent US10098878B2, “HIF-2α inhibitors for treating iron overload disorders” (The Board of Regents of the University of Texas System, priority 2014, dated 2018)
